We go through 3 compounds from patent US6737434B2, “Imidazole derivatives or their salts” (SSP Co., Ltd., priority 2000, dated 2004).

In this test the test system is human G-CSF-dependent cell strain (BAF/hGCSFR). As to the kind of experiment: Induction of cell growth of a human G-CSF-dependent cell strain (WST-1 absorbance), expressed as human-G-CSF equivalent concentration. The class given is cell-based. As to conditions: 48 hours incubation, mean±standard error, n=5. The method, then: Cloning of human G-CSF receptor gene was performed through RT-PCR by using primers created on the basis of the human G-CSF receptor gene using a human spleen cDNA library. The thus cloned human G-CSF receptor gene inserted to a multicloning site of an expression vector. Subsequently, the gene-inserted expression vector was transformed into E. coli for multiplication, and the expression vector was extracted. An aliquot of the expression vector (20 μg) was added to host cells (BAF/B03) prepared to 5×10^7 cells/800 μL K-PBS (30.8 mM NaCl, 120.7 mM KCl, 8.1 mM Na2HPO4, 1.46 mM KH2PO4, 5 mM MgCl2), followed by standing still at 4° C. for 15 minutes. For gene transfer, electroporation was performed at a voltage of 280 V and a capacitance of 950 μF. After completion of gene transfer, the cells were suspended in a DMEM medium ((+) 10% FCS) containing recombinant human G-CSF (rhG-CSF, 20 ng/mL) and puromycin (2 μg/mL), whereby a human G-CSF dependent cell strain was created.
For studying the cell multiplication ability with respect to rhG-CSF, the following procedure was carried out. Briefly, cells in which the human G-CSF receptor gene had been inserted (BAF/hGCSFR) were collected, and washed with PBS(−). Subsequently, the cells were suspended in DMEM medium, and the medium containing the cells was prepared to the wells of a 96-well plate (5×10^4 cells/well). Then, rhG-CSF was added to the wells (0, 0.006, 0.025, 0.1, 0.4 ng/mL), and the cells in the wells were cultured under 5% CO2 for 48 hours at 37° C. After completion of incubation, a solution of WST-1/1-methoxy PMS was added to the wells (final concentration: 5 mM), and the cells in the wells were cultured in a CO2 incubator for 2 hours. After completion of incubation, the absorbance of the cultured solution was measured at a wavelength of 450 nm. The results are shown in FIG. 1 (mean±standard error, n=5).
A solution prepared by diluting a compound with DMEM was added to the wells of a 96-well microplate (10 μL/well). The human G-CSF-dependent cell strain was added to the wells (5.0×10^4 cells/100 μL), followed by incubation for 48 hours at 37° C. After completion of incubation, a solution of WST-1/1-methoxy PMS (final concentration: 5 mM) was added to the wells, followed by incubation in a CO2 incubator for 2 hours. After completion of incubation, the absorbance was measured at a wavelength of 450 nm. The results are shown in FIG. 2 (mean±standard error, n=5).
Using the test data obtained from Test Example 1, human-G-CSF equivalent concentrations (ng/mL) corresponding to respective compound concentrations employed in Test Example 2 were calculated. The results are shown in Table 1 (mean±standard error, n=5).
For orientation: Tetrazolium assays rely on reduction of a dye to a coloured formazan, in cell work by metabolically active cells.

For `CCCCCCCCCOc1ccc(Cl)cc1C(C)(O)Cn1ccnc1` (stereo not drawn) [Compound (1-1), 2-(5-Chloro-2-(n-nonyloxy)phenyl)-1-(1H-1-imidazolyl)-2-propanol], the human-G-CSF equivalent concentration by setting is: (compound conc. 10^−6 M) 0.131 ± 0.001 ng/mL; (compound conc. 10^−7 M) 0.032 ± 0.0003 ng/mL; (compound conc. 10^−8 M) 0.015 ± 0.0001 ng/mL.

Regarding `CCCCCCCOc1ccc(Cl)cc1C(C)(O)Cn1ccnc1` (stereo not drawn) [Compound (1-2), 2-(5-Chloro-2-(n-heptyloxy)phenyl)-1-(1H-1-imidazolyl)-2-propanol], the human-G-CSF equivalent concentration runs as follows: (compound conc. 10^−6 M) 0.049 ± 0.0004 ng/mL; (compound conc. 10^−7 M) 0.037 ± 0.0003 ng/mL; (compound conc. 10^−8 M) 0.013 ± 0.0001 ng/mL.

For the compound `CCCCCCCCOc1ccc(Cl)cc1C(C)(O)Cn1ccnc1` (stereo not drawn) [Compound (1-3), 2-(5-Chloro-2-(n-octyloxy)phenyl)-1-(1H-1-imidazolyl)-2-propanol], the human-G-CSF equivalent concentration was 0.057 ± 0.0005 ng/mL (compound conc. 10^−6 M), 0.057 ± 0.0005 ng/mL (compound conc. 10^−7 M) and 0.018 ± 0.0001 ng/mL (compound conc. 10^−8 M).
